Results reported in US8969356B2, “Compounds useful as inhibitors of ATR kinase” (Vertex Pharmaceuticals Incorporated, priority 2010, dated 2015).

What follows are compounds tested against T1, ATR kinase (Homo sapiens, UniProt Q13535) (assay: ATR Inhibition Assay (radioactive-phosphate incorporation)). Conditions: not given.
T1 construct: Assays were carried out at 25° C. in the presence of 5 nM full-length ATR
T1 sequence (Q13535 whole entry): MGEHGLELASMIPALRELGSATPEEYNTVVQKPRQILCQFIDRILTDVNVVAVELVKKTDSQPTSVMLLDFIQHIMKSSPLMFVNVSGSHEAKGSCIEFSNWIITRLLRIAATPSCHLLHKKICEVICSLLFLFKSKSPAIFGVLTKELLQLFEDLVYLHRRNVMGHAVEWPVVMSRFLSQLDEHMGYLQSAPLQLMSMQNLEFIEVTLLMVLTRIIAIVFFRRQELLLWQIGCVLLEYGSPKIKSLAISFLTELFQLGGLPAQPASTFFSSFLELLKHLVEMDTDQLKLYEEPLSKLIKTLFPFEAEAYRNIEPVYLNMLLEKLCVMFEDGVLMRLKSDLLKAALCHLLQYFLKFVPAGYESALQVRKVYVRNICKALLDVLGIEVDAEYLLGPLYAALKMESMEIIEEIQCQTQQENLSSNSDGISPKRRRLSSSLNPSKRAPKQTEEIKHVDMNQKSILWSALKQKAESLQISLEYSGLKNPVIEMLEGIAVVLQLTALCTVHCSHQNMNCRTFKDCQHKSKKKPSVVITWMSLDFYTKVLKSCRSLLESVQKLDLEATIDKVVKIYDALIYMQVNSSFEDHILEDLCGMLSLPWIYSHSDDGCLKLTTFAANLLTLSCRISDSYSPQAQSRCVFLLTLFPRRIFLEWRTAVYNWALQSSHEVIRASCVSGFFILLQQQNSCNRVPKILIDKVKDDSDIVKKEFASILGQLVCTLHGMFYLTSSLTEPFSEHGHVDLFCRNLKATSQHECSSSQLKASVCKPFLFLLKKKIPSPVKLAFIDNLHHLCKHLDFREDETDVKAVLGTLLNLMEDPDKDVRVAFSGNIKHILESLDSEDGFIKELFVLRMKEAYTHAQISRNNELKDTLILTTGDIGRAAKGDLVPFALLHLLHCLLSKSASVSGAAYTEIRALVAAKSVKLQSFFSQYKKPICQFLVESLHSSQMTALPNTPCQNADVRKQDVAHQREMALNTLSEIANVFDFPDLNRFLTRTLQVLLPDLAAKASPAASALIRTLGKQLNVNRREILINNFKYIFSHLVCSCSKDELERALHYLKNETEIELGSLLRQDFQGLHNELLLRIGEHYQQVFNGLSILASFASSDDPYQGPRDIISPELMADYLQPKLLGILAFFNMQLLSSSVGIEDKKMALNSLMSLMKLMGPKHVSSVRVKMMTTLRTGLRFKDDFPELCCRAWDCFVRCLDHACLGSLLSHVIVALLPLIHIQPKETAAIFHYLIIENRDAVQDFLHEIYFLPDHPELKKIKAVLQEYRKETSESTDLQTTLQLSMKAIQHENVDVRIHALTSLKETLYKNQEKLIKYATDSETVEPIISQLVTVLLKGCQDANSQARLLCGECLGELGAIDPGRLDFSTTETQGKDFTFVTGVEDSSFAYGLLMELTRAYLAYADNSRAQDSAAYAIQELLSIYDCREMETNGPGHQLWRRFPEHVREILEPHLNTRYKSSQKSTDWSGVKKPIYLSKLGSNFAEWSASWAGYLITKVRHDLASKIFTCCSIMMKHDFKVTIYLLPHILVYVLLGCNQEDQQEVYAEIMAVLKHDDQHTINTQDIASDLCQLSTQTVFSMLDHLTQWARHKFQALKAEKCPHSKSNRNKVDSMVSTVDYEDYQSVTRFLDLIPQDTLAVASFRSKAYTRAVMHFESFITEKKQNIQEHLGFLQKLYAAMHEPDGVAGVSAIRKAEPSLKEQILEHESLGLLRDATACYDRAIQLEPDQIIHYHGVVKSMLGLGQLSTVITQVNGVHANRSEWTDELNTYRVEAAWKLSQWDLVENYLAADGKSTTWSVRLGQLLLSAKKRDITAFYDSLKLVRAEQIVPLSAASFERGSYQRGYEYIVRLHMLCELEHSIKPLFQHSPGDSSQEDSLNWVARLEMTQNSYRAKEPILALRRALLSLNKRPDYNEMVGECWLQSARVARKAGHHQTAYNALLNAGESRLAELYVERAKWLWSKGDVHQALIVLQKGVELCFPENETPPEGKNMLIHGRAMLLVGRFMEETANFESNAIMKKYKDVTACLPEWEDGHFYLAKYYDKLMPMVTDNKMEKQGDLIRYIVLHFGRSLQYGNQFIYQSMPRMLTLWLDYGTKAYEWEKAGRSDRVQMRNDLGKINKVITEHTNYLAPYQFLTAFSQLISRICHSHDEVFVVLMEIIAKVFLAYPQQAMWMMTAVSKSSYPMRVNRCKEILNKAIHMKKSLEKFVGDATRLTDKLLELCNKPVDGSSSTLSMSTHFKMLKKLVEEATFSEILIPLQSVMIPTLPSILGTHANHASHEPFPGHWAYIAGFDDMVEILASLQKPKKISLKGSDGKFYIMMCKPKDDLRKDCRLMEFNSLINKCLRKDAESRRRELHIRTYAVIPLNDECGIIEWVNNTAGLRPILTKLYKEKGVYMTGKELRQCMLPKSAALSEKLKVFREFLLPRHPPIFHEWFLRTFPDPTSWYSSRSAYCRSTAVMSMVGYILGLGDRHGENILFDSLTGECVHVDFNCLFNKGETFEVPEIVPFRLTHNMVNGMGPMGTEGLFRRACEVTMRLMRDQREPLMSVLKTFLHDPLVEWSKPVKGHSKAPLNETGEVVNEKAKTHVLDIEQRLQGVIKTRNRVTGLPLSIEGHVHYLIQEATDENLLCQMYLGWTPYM
Type: biochemical
Method: Compounds were screened for their ability to inhibit ATR kinase using a radioactive-phosphate incorporation assay. Assays were carried out in a mixture of 50 mM Tris/HCl (pH 7.5), 10 mM MgCl2 and 1 mM DTT. Final substrate concentrations were 10 μM [γ-33P]ATP (3mCi 33P ATP/mmol ATP, Perkin Elmer) and 800 μM target peptide ([…] (SEQ. ID NO: 1)).
Assays were carried out at 25° C. in the presence of 5 nM full-length ATR. An assay stock buffer solution was prepared containing all of the reagents listed above, with the exception of ATP and the test compound of interest. 13.5 μL of the stock solution was placed in a 96 well plate followed by addition of 2 μL of DMSO stock containing serial dilutions of the test compound (typically starting from a final concentration of 15 μM with 3-fold serial dilutions) in duplicate (final DMSO concentration 7%). The plate was pre-incubated for 10 minutes at 25° C. and the reaction initiated by addition of 15 μL [γ-33P]ATP (final concentration 10 μM).
The reaction was stopped after […] by the addition of 30 μL 0.1M phosphoric acid containing 2 mM ATP. A multiscreen phosphocellulose filter 96-well plate (Millipore, Cat no. MAPHN0B50) was pretreated with 100 μL 0.2M phosphoric acid prior to the addition of 45 μL of the stopped assay mixture. The plate was washed with 5×200 μL 0.2M phosphoric acid. After drying, 100 μL Optiphase ‘SuperMix’ liquid scintillation cocktail (Perkin Elmer) was added to the well prior to scintillation counting (1450 Microbeta Liquid Scintillation Counter, Wallac).
After removing mean background values for all of the data points, Ki(app) data were calculated from non-linear regression analysis of the initial rate data using the Prism software package (GraphPad Prism version 3.0cx for Macintosh, GraphPad Software, San Diego Calif., USA).
`CC(C)S(=O)(=O)c1ccc(-c2cnc(N)c(C#Cc3ccc4[nH]ncc4c3)n2)cc1` [Compound I-45, 3-((1H-indazol-5-yl)ethynyl)-5-(4-(isopropylsulfonyl)phenyl)pyrazin-2-amine] was tested, and the Ki was ≤ 100 nM. `Nc1ncc(-c2ccc(S(=O)(=O)C3CCNCC3)cc2)nc1C#Cc1cccc(O)c1` [Compound I-17, 3-[2-[3-Amino-6-[4-(4-piperidylsulfonyl)phenyl]pyrazin-2-yl]ethynyl]phenol] was tested, and the Ki was ≤ 100 nM. For `CC(C)S(=O)(=O)c1ccc(-c2cnc(N)c(C#Cc3cccc4[nH]ncc34)n2)cc1` [Compound I-44, 3-((1H-indazol-4-yl)ethynyl)-5-(4-(isopropylsulfonyl)phenyl)pyrazin-2-amine], the Ki was ≤ 100 nM. `CC(C)S(=O)(=O)c1ccc(-c2cnc(N)c(C#Cc3cccc(OCCN4CCOCC4)c3)n2)cc1` [Compound I-36, 5-(4-Isopropylsulfonylphenyl)-3-[2-[3-(2-morpholinoethoxy)phenyl]ethynyl]pyrazin-2-amine] gave a Ki of 100 to 1000 nM. With `CC(C)S(=O)(=O)c1ccc(-c2cnc(N)c(C#Cc3cccc(C(N)=O)c3)n2)cc1` [Compound I-37, 3-[2-[3-Amino-6-(4-isopropylsulfonylphenyl)pyrazin-2-yl]ethynyl]benzamide] the Ki was ≤ 100 nM. For `COc1cccc(C#Cc2nc(-c3ccc(S(=O)(=O)C(C)C)cc3)cnc2N)c1` [Compound I-3, 5-(4-Isopropylsulfonylphenyl)-3-[2-(3-methoxyphenyl)ethynyl]pyrazin-2-amine], the Ki was ≤ 100 nM. In the case of `CC(C)S(=O)(=O)c1ccc(-c2cnc(N)c(C#CC3CCCCC3)n2)cc1` [Compound I-8, 3-(2-Cyclohexylethynyl)-5-(4-isopropylsulfonylphenyl)pyrazin-2-amine], the Ki is reported as 100 to 1000 nM. For `C#Cc1nc(-c2ccc(S(=O)(=O)C(C)C)cc2)cnc1N` [Compound I-5, 3-Ethynyl-5-(4-isopropylsulfonylphenyl)pyrazin-2-amine], the Ki was 100 to 1000 nM. In the case of `CC(C)S(=O)(=O)c1ccc(-c2cnc(N)c(C#Cc3cccc(OCCCN)c3)n2)cc1` [Compound I-24, 3-[2-[3-(3-Aminopropoxy)phenyl]ethynyl]-5-(4-isopropylsulfonylphenyl)pyrazin-2-amine], the Ki is reported as ≤ 100 nM. `Cc1cccc(C#Cc2nc(-c3ccc(S(=O)(=O)C(C)C)cc3)cnc2N)c1` [Compound I-11, 5-(4-Isopropylsulfonylphenyl)-3-[2-(m-tolyl)ethynyl]pyrazin-2-amine] was tested, and the Ki was ≤ 100 nM. With `CC(C)S(=O)(=O)c1ccc(-c2cnc(N)c(C#Cc3ccc(C(O)CN)cc3)n2)cc1` (stereo not drawn) [Compound I-42, 2-amino-1-(4-((3-amino-6-(4-(isopropylsulfonyl)phenyl)pyrazin-2-yl)ethynyl)phenyl)ethanol] the Ki was ≤ 100 nM. With `CC(C)S(=O)(=O)c1ccc(-c2cnc(N)c(C#CCc3ccccc3)n2)cc1` [Compound I-10, 5-(4-isopropylsulfonylphenyl)-3-(3-phenylprop-1-ynyl)pyrazin-2-amine] the Ki was 1000 to 13000 nM. In the case of `CCC(=O)N1CC=C(c2cnc(N)c(C#Cc3cccc(O)c3)n2)CC1` [Compound I-30, 1-[4-[5-Amino-6-[2-(3-hydroxyphenyl)ethynyl]pyrazin-2-yl]-3,6-dihydro-2H-pyridin-1-yl]propan-1-one], the Ki is reported as ≤ 100 nM. With `CC(C)S(=O)(=O)c1ccc(-c2cnc(N)c(C#Cc3cc(Cl)cc(CO)c3)n2)cc1` [Compound I-48, (3-((3-amino-6-(4-(isopropylsulfonyl)phenyl)pyrazin-2-yl)ethynyl)-5-chlorophenyl)methanol] the Ki was ≤ 100 nM. `C[S+]([O-])c1ccccc1-c1cnc(N)c(C#Cc2cccc(O)c2)n1` (stereo not drawn) [Compound I-23, 3-[2-[3-Amino-6-(2-methylsulfinylphenyl)pyrazin-2-yl]ethynyl]phenol] was tested, and the Ki was ≤ 100 nM. `CC(C)S(=O)(=O)c1ccc(-c2cnc(N)c(C#Cc3cccc(OCCN(C)C)c3)n2)cc1` [Compound I-26, 3-[2-[3-(2-Dimethylaminoethyloxy)phenyl]ethynyl]-5-(4-isopropylsulfonylphenyl)pyrazin-2-amine] gave a Ki of 100 to 1000 nM. With `CC(C)S(=O)(=O)c1ccc(-c2cnc(N)c(C#C[C@@H](C)O)n2)cc1` [Compound I-4, (2R)-4-[3-Amino-6-(4-isopropylsulfonylphenyl)pyrazin-2-yl]but-3-yn-2-ol] the Ki was 100 to 1000 nM. In the case of `CC(C)S(=O)(=O)c1ccc(-c2cnc(N)c(C#Cc3cccc(OCCN)c3)n2)cc1` [Compound I-25, 3-[2-[3-(2-Aminoethoxy)phenyl]ethynyl]-5-(4-isopropylsulfonylphenyl)pyrazin-2-amine], the Ki is reported as ≤ 100 nM. With `Cc1ccc(O)cc1C#Cc1nc(-c2ccc(S(=O)(=O)C(C)C)cc2)cnc1N` [Compound I-47, 3-((3-amino-6-(4-(isopropylsulfonyl)phenyl)pyrazin-2-yl)ethynyl)-4-methylphenol] the Ki was ≤ 100 nM. `CNCc1cccc(C#Cc2nc(-c3ccc(S(=O)(=O)C(C)C)cc3)cnc2N)c1` [Compound I-28, 5-(4-Isopropylsulfonylphenyl)-3-[2-[3-(methylaminomethyl)phenyl]ethynyl]pyrazin-2-amine] was tested, and the Ki was ≤ 100 nM. Compound `COc1ccccc1C#Cc1nc(-c2ccc(S(=O)(=O)C(C)C)cc2)cnc1N` [Compound I-19, 5-(4-Isopropylsulfonylphenyl)-3-[2-(2-methoxyphenyl)ethynyl]pyrazin-2-amine] has a Ki of 100 to 1000 nM. `CC(C)S(=O)(=O)c1ccc(-c2cnc(N)c(C#CC3CC3)n2)cc1` [Compound I-27, 3-(2-Cyclopropylethynyl)-5-(4-isopropylsulfonylphenyl)pyrazin-2-amine] was tested, and the Ki was 100 to 1000 nM. For `CC(C)S(=O)(=O)c1ccc(-c2cnc(N)c(C#Cc3cccc(NC(=O)CN)c3)n2)cc1` [Compound I-49, 2-amino-N-(3-((3-amino-6-(4-(isopropylsulfonyl)phenyl)pyrazin-2-yl)ethynyl)phenyl)acetamide], the Ki was ≤ 100 nM. In the case of `CC(C)S(=O)(=O)c1ccc(-c2cnc(N)c(C#Cc3ccccc3Cl)n2)cc1` [Compound I-12, 3-[2-(2-Chlorophenyl)ethynyl]-5-(4-isopropylsulfonylphenyl)pyrazin-2-amine], the Ki is reported as ≤ 100 nM. `CC(C)S(=O)(=O)c1ccc(-c2cnc(N)c(C#Cc3ccc(F)cc3)n2)cc1` [Compound I-14, 3-[2-(4-Fluorophenyl)ethynyl]-5-(4-isopropylsulfonylphenyl)pyrazin-2-amine] was tested, and the Ki was ≤ 100 nM. With `CC(C)S(=O)(=O)c1ccc(-c2cnc(N)c(C#Cc3cccc4ccccc34)n2)cc1` [Compound I-2, 5-(4-Isopropylsulfonylphenyl)-3-[2-(1-naphthyl)ethynyl]pyrazin-2-amine] the Ki was ≤ 100 nM. `CC(C)n1cc(-c2cnc(N)c(C#Cc3cccc(O)c3)n2)ccc1=O` [Compound I-16, 5-[5-Amino-6-[2-(3-hydroxyphenyl)ethynyl]pyrazin-2-yl]-1-isopropyl-pyridin-2-one] was tested, and the Ki was ≤ 100 nM. In the case of `CC(C)S(=O)(=O)c1ccc(-c2cnc(N)c(C#Cc3cccc(OCCCN(C)C)c3)n2)cc1` [Compound I-20, 3-[2-[3-[3-(Dimethylamino)propoxy]phenyl]ethynyl]-5-(4-isopropylsulfonylphenyl)pyrazin-2-amine], the Ki is reported as ≤ 100 nM. For `CC(C)S(=O)(=O)c1ccc(-c2cnc(N)c(C#Cc3ccncc3)n2)cc1` [Compound I-32, 5-(4-Isopropylsulfonylphenyl)-3-[2-(4-pyridyl)ethynyl]pyrazin-2-amine], the Ki was ≤ 100 nM.

Same assay, conditions: at 15 uM
`CC(C)S(=O)(=O)c1ccc(-c2cnc(N)c(C#Cc3ccccc3CO)n2)cc1` [Compound I-46, (2-((3-amino-6-(4-(isopropylsulfonyl)phenyl)pyrazin-2-yl)ethynyl)phenyl)methanol] showed an inhibition at 15 µM of 30%.
